In the NIST ThermoML archive (doi:10.1021/acs.jced.5b00367):

Experiment: wn = mass fraction of the nth substance listed
Details: 101 kPa, Liquid, Alternating current cell with electrodes, w2 = 0.01

CCCCCCCCCCCCCCCC[N+](C)(C)C.[Br-] [N,N,N-trimethyl-1-hexadecanaminium bromide] + O
Details	electrical conductivity [S/m]
278.35 K	0.0058
278.45 K	0.00619
278.65 K	0.00607
278.75 K	0.00612
278.85 K	0.0062
278.95 K	0.00609
279.05 K	0.00617
279.15 K	0.00614
279.25 K	0.0062
279.35 K	0.00616
279.45 K	0.00619
279.55 K	0.00628
279.65 K	0.00609
279.85 K	0.0061
279.95 K	0.00631
280.05 K	0.00615
280.15 K	0.00638
280.25 K	0.00613
280.35 K	0.00642
280.45 K	0.00634
280.55 K	0.00613
280.65 K	0.00616
280.75 K	0.00638
280.95 K	0.00614
281.05 K	0.00624
281.25 K	0.00621
281.35 K	0.00655
281.45 K	0.00644
281.55 K	0.00622
281.75 K	0.00649
281.85 K	0.00648
282.05 K	0.00651
282.45 K	0.00667
282.55 K	0.00678
282.65 K	0.00648
282.75 K	0.00655
282.95 K	0.00662
283.05 K	0.00638
283.15 K	0.00641
283.25 K	0.0067
283.35 K	0.00677
283.45 K	0.00666
283.55 K	0.0068
283.75 K	0.00674
283.85 K	0.0068
283.95 K	0.00686
284.05 K	0.00653
284.15 K	0.00678
284.25 K	0.00646
284.45 K	0.00672
284.55 K	0.007
284.65 K	0.00699
284.75 K	0.00651
284.85 K	0.00686
285.05 K	0.00717
285.15 K	0.00708
285.25 K	0.00696
285.35 K	0.00725
285.45 K	0.00739
285.55 K	0.00715
285.65 K	0.00719
285.85 K	0.00716
285.95 K	0.00733
286.05 K	0.00702
286.15 K	0.00705
286.25 K	0.007
286.35 K	0.00737
286.45 K	0.00737
286.55 K	0.00715
286.65 K	0.00719
286.75 K	0.00733
286.85 K	0.0074
286.95 K	0.00708
287.05 K	0.00755
287.15 K	0.00733
287.25 K	0.00744
287.35 K	0.00761
287.45 K	0.00728
287.55 K	0.00751
287.65 K	0.00752
287.75 K	0.0073
287.85 K	0.0076
287.95 K	0.00774
288.05 K	0.0076
288.15 K	0.00778
288.25 K	0.00766
288.35 K	0.00772
288.45 K	0.00805
288.55 K	0.00791
288.65 K	0.00778
288.75 K	0.00779
288.85 K	0.0077
288.95 K	0.00795
289.05 K	0.00784
289.15 K	0.00787
289.25 K	0.00779
289.35 K	0.00805
289.45 K	0.00794
289.55 K	0.00793
289.65 K	0.00803
289.75 K	0.00826
289.85 K	0.00819
289.95 K	0.00835
290.05 K	0.0079
290.15 K	0.00861
290.25 K	0.00828
290.35 K	0.00849
290.45 K	0.00815
290.55 K	0.00824
290.65 K	0.00834
290.75 K	0.00836
290.85 K	0.00818
290.95 K	0.00836
291.05 K	0.00861
291.15 K	0.00846
291.25 K	0.0088
291.35 K	0.00865
291.45 K	0.00866
291.55 K	0.00853
291.65 K	0.00868
291.75 K	0.00867
291.85 K	0.00897
291.95 K	0.00872
292.05 K	0.00879
292.15 K	0.00913
292.25 K	0.00908
292.35 K	0.00902
292.45 K	0.00905
292.55 K	0.00904
292.65 K	0.00928
292.75 K	0.00942
292.85 K	0.00967
292.95 K	0.00959
293.05 K	0.00954
293.15 K	0.00976
293.25 K	0.01
293.35 K	0.0101
293.45 K	0.0102
293.55 K	0.0103
293.65 K	0.0105
293.75 K	0.0102
294.15 K	0.0106
294.25 K	0.0109
294.35 K	0.0107
294.45 K	0.011
294.55 K	0.0111
294.65 K	0.0109
294.75 K	0.011
294.85 K	0.0114
294.95 K	0.0113
295.05 K	0.0114
295.15 K	0.0117
295.25 K	0.0117
295.45 K	0.0122
295.65 K	0.0126
295.75 K	0.0124
295.85 K	0.0128
296.05 K	0.013
296.15 K	0.0139
296.35 K	0.0139
296.45 K	0.0145
296.55 K	0.0148
296.75 K	0.0157
296.95 K	0.0167
297.05 K	0.0178
297.15 K	0.02
297.35 K	0.0201
297.45 K	0.0217
297.55 K	0.0232
297.65 K	0.0257
297.95 K	0.0314
298.05 K	0.0353
298.25 K	0.0406
298.35 K	0.0457
298.45 K	0.0514
298.55 K	0.0565
298.75 K	0.0605
298.85 K	0.0628
299.05 K	0.0642
299.15 K	0.0647
299.25 K	0.0648
299.55 K	0.0651
299.75 K	0.0653
299.95 K	0.0654
300.25 K	0.0657
300.85 K	0.066
301.25 K	0.0662
301.45 K	0.0663
302.05 K	0.0667
302.25 K	0.0668
302.55 K	0.067
302.65 K	0.0671
302.85 K	0.0672
302.95 K	0.0666
303.05 K	0.0673
303.15 K	0.0675
303.35 K	0.0676
303.65 K	0.0678
303.85 K	0.0679
304.05 K	0.068
304.25 K	0.0682
304.45 K	0.0683
304.55 K	0.0684
304.75 K	0.0685
304.95 K	0.0687
305.15 K	0.0688
305.45 K	0.0689
305.65 K	0.0692
306.25 K	0.0695
306.45 K	0.0696
306.85 K	0.0699
307.05 K	0.07
307.35 K	0.0702
307.45 K	0.0703
307.75 K	0.0705
307.95 K	0.0707
308.65 K	0.0712
308.85 K	0.0714
309.05 K	0.0715
309.35 K	0.0712
309.55 K	0.0718
309.75 K	0.0719
309.85 K	0.0721
310.05 K	0.0722
310.25 K	0.0723
310.45 K	0.0724
310.65 K	0.0727
310.85 K	0.0728
311.25 K	0.073
311.55 K	0.0732
311.75 K	0.0735
312.05 K	0.0737
312.55 K	0.074
312.95 K	0.0744
313.35 K	0.0745
313.55 K	0.0747
313.75 K	0.0748
313.95 K	0.075
314.15 K	0.0752
314.35 K	0.0753
314.55 K	0.0755
314.75 K	0.0756
314.95 K	0.0759
315.45 K	0.0761
315.55 K	0.0762
315.75 K	0.0764
315.95 K	0.0765
316.15 K	0.0767
316.35 K	0.0769
316.65 K	0.0771
317.05 K	0.0775
317.15 K	0.0776
318.05 K	0.0778
318.25 K	0.0783
318.45 K	0.0786
318.95 K	0.079
319.25 K	0.0792
319.75 K	0.0798
320.25 K	0.08
320.35 K	0.0802
320.65 K	0.0816
321.85 K	0.0817
322.05 K	0.0819
322.25 K	0.082
322.35 K	0.0823
322.75 K	0.0824
322.85 K	0.0826
323.15 K	0.083
323.35 K	0.0832
323.45 K	0.0834
323.65 K	0.0837
323.85 K	0.0839
324.05 K	0.0841
324.35 K	0.0842
324.45 K	0.0843
324.65 K	0.0846
324.75 K	0.0848
324.85 K	0.0849
325.15 K	0.0853
325.35 K	0.0855
325.55 K	0.0856
325.65 K	0.0858
325.85 K	0.086
326.15 K	0.0862
326.25 K	0.0863
326.45 K	0.0866
326.55 K	0.0869
326.75 K	0.087
326.95 K	0.0871
327.05 K	0.0873
327.55 K	0.0876
327.75 K	0.0876
333.45 K	0.0912
333.65 K	0.0914
333.75 K	0.0915
334.05 K	0.0916
334.35 K	0.092
334.75 K	0.0922
334.95 K	0.0924
335.35 K	0.0926
335.55 K	0.0927
335.75 K	0.0929
335.95 K	0.093
336.15 K	0.0932
336.55 K	0.0934
336.65 K	0.0935
336.85 K	0.0936
337.05 K	0.0937
337.25 K	0.0939
337.55 K	0.0942
337.75 K	0.0943
338.05 K	0.0945
338.15 K	0.0947
338.55 K	0.095
338.75 K	0.0951
338.95 K	0.0952
339.05 K	0.0953
339.15 K	0.0954
339.35 K	0.0955
339.65 K	0.0957
339.85 K	0.0959
340.05 K	0.096
340.35 K	0.0962
340.55 K	0.0963
340.65 K	0.0964
340.85 K	0.0966
341.05 K	0.0967
341.15 K	0.0968
341.35 K	0.097
341.55 K	0.0971
341.65 K	0.0972
341.85 K	0.0973
341.95 K	0.0974
342.05 K	0.0975
342.25 K	0.0977
342.45 K	0.0979
342.75 K	0.098
342.95 K	0.0982
343.05 K	0.0983
343.25 K	0.0987
343.45 K	0.0989
343.75 K	0.099
343.95 K	0.0991
344.05 K	0.0993
344.35 K	0.0995
344.55 K	0.0996
344.75 K	0.1
345.05 K	0.1
345.35 K	0.1
345.55 K	0.101
345.85 K	0.101
346.05 K	0.101
346.25 K	0.101
346.55 K	0.101
346.75 K	0.102
346.85 K	0.102
347.05 K	0.102
347.25 K	0.102
347.55 K	0.102
347.75 K	0.102
348.05 K	0.103
348.15 K	0.103
